# Reference: ChEMBL document CHEMBL1201862, “PubChem BioAssay data set” (2004)
# Activity calls are given as the source filed them.
# Legend:
# [1] = biological target: T1, Microphthalmia-associated transcription factor (Homo sapiens, UniProt O75030); assay: TRPM1 promoter luciferase signal decrease, dose response, MITF inhibitor project, cell-based, SK-MEL-5, cherry-picked, set 3 (AID 493073); assay type: functional
# T1 sequence (O75030 whole entry): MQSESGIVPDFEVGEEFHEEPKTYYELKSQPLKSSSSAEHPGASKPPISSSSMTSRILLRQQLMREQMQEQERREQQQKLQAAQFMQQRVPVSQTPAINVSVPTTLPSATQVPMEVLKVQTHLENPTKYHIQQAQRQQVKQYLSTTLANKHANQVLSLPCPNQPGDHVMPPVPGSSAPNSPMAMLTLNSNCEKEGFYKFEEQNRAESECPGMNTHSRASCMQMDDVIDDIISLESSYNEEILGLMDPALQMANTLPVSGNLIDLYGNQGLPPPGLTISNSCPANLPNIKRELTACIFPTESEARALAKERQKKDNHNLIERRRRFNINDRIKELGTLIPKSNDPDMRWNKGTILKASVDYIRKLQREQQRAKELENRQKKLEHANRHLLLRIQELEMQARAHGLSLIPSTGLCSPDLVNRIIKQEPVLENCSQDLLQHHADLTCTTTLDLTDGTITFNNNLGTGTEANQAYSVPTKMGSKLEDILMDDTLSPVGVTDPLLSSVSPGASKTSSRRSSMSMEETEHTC
# [2] = HEp-2 cell cytotoxicity, dose response, cytotoxicity control for RSV inhibitor project, HTS (AID 2410); assay type: functional; details: human respiratory syncytial virus
# Large T antigen = Large T antigen (Simian virus 40, UniProt P03070); assay type: functional, Betapolyomavirus macacae;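 also: Confirmatory-stage PubChem screen for compounds that inhibit SV40 T antigen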
# [3] = inhibitors of PGC1a acetylation in cells, dose response, cell-based, cherry-picked samples (AID 720514); assay type: functional;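 also: potency may reflect raised or lowered acetylation signal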
# [4] = biological target: T2, Small ubiquitin-related modifier 1 (Homo sapiens, UniProt P63165); assay: inhibitors of SUMO1 partner interactions, dose response, biochemical, FRET (AID 624383); assay type: functional; details: read-out: IC50_Mean
# [5] = biological target: T2, Small ubiquitin-related modifier 1; assay: inhibitors of SUMO1 peptide binding, dose response, biochemical, fluorescence polarization, uHTS hits (AID 624382); assay type: functional; details: read-out: IC50_Mean
# [6] = biological target: T3, Zinc finger protein mex-5 (Caenorhabditis elegans, UniProt Q9XUB2); assay: MEX-5/TCR-2 RNA interaction inhibitors, dose response, biochemical, C. elegans, fluorescence polarization (AID 1960)
# T3 sequence (Q9XUB2 whole entry): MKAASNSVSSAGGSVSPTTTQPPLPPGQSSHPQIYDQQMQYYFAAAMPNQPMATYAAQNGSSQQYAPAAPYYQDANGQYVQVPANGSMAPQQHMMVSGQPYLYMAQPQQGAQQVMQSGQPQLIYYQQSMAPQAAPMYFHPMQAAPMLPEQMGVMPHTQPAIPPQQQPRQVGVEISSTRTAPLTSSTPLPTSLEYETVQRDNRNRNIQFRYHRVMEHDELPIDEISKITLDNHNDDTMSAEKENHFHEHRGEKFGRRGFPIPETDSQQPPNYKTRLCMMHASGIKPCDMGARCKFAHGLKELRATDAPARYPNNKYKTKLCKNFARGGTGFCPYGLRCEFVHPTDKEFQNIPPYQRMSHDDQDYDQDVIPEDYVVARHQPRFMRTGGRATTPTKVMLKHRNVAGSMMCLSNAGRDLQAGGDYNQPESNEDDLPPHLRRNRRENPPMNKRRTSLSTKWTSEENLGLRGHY
# Protein RecA = biological target: T4, Protein RecA (Mycobacterium tuberculosis, UniProt P9WHJ3); assay: Fluorescence Cell-Free Homogeneous Dose Retest to Identify Inhibitors of RecA-Intein Splicing Activity. [Related pubchem assays (depositor defined):AID2097, AID2223, AID489010, AID492950]; assay type: functional
# T4 sequence (P9WHJ3 whole entry): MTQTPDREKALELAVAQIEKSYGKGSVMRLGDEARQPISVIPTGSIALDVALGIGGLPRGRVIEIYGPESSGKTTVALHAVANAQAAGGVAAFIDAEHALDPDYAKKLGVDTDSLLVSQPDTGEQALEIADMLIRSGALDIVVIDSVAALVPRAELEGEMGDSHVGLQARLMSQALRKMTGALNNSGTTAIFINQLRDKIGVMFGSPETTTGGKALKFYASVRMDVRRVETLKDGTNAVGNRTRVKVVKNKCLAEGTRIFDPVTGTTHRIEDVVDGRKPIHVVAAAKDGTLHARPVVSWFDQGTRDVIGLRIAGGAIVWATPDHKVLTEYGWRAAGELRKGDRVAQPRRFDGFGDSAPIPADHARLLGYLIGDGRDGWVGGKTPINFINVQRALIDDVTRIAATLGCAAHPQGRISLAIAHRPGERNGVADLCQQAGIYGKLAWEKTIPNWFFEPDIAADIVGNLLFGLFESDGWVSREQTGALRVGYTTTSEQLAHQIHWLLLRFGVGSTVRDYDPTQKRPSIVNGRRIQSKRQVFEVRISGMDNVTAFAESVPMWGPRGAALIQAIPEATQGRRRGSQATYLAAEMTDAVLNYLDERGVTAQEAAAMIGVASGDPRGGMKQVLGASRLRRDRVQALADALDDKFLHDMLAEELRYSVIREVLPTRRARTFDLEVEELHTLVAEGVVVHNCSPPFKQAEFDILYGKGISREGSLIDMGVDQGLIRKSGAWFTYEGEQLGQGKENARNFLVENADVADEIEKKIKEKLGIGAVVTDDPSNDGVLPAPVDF
# [7] = biological target: T5, Replicative DNA helicase DnaB (Mycobacterium tuberculosis, UniProt P9WMR3); assay: DnaB intein splicing inhibitors, dose response, biochemical, cell-free fluorescence (AID 449749); assay type: functional
# T5 sequence (P9WMR3 whole entry): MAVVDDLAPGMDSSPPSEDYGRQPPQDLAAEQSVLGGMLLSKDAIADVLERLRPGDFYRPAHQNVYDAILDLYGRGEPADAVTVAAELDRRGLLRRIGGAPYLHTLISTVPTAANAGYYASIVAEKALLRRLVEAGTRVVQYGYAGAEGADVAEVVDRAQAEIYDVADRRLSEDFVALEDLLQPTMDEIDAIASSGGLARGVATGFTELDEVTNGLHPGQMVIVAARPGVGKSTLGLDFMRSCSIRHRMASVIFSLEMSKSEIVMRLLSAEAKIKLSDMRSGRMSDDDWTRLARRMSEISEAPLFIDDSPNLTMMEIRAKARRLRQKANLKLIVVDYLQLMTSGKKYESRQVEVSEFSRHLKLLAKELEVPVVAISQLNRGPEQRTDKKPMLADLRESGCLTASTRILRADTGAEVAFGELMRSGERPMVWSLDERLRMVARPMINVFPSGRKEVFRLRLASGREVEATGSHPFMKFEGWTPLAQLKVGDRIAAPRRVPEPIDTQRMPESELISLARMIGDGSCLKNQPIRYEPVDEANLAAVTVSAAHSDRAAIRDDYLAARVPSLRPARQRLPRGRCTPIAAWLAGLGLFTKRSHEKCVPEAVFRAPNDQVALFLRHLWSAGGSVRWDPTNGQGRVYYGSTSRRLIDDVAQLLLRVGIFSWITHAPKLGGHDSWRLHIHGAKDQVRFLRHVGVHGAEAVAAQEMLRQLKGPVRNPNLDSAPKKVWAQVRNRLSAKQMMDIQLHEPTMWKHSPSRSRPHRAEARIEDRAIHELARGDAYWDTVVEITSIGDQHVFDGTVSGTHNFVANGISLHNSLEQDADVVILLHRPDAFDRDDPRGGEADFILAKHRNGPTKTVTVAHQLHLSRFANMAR
# [8] = biological target: T6, RNA-binding protein pos-1 (Caenorhabditis elegans, UniProt G5EF15); assay: inhibitors of POS-1/mex-3 RNA binding, dose response, biochemical, fluorescence polarization (AID 1964);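 also: purified POS-1 fused to maltose binding protein made in E. coli; potency of compounds blocking POS-1 binding to fluorescent RNA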
# T6 sequence (G5EF15 whole entry): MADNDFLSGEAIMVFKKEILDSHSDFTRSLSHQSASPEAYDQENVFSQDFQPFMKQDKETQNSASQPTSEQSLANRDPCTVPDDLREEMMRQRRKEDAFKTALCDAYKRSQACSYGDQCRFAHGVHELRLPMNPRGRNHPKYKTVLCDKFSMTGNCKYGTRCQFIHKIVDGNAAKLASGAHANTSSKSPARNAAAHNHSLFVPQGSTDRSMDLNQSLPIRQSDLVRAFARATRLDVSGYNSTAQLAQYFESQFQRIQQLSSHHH
# [9] = LGR2 antagonists, dose response, cell-based, HEK293, CRE-luciferase reporter, cherry pick, set 2 (AID 743343); assay type: functional;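 also: transfected cells were stimulated with diluted bursicon conditioned medium after compound addition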
# [10] = MC4R antagonists, dose response, counter-screen for LGR2 antagonist project, cell-based, plate reader, cherry pick (AID 743444); assay type: functional;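 also: transfected HEK 293 cells stimulated with alpha-MSH peptide; potency of inhibitors of the alpha-MSH evoked signal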
# [11] = biological target: T7, Rac GTPase-activating protein 1 (Homo sapiens, UniProt Q9H0H5); assay: MgcRacGAP GTPase-activating activity inhibitors, confirmation, biochemical, ADP Hunter fluorescence, primary and confirmatory (AID 624330); assay type: functional
# T7 sequence (Q9H0H5 whole entry): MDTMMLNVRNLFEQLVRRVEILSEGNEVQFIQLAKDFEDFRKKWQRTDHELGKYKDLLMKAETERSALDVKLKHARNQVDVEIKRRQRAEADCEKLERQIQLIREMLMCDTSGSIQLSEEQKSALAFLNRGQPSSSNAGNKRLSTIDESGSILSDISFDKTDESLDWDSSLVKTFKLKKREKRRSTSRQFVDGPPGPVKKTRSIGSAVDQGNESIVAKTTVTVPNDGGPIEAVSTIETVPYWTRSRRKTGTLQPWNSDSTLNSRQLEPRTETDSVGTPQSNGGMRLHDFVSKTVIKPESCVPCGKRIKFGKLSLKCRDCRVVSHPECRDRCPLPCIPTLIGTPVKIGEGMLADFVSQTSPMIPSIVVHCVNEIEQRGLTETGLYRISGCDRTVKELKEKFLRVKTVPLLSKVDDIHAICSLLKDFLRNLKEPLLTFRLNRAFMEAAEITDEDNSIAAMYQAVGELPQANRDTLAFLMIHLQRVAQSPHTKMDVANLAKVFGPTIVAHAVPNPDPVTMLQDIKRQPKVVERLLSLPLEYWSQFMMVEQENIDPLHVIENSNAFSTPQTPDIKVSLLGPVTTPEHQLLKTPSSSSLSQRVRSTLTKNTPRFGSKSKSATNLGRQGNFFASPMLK
# Cytochrome P450 2C19 = Cytochrome P450 2C19 (Homo sapiens, UniProt P33261); assay: Cytochrome panel assay with activity outcomes. Panel member name: p450-cyp2c19 Compounds with AC50 equal or less than 10 uM are considered active; assay type: functional; details: read-out: AC50
# Cytochrome P450 2C9 = Cytochrome P450 2C9 (Homo sapiens, UniProt P11712)
# Cytochrome P450 2C9, sequence (P11712 whole entry): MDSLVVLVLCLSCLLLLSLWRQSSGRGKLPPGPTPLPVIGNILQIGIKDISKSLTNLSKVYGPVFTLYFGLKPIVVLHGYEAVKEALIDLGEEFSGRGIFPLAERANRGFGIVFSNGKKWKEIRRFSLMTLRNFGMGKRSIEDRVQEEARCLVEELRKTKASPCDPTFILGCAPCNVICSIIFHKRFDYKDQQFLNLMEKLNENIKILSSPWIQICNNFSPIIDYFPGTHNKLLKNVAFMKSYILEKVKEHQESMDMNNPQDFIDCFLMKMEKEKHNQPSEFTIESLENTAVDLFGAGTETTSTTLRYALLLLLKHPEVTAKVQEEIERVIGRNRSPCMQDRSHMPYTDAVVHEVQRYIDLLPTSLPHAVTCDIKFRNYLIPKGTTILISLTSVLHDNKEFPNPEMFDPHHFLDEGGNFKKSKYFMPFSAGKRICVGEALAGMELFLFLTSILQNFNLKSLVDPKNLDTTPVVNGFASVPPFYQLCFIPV
# T2 sequence (P63165 whole entry): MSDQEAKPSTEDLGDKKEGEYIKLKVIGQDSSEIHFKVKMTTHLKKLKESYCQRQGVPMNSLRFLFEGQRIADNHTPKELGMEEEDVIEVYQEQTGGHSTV
# Large T antigen, sequence (P03070 whole entry): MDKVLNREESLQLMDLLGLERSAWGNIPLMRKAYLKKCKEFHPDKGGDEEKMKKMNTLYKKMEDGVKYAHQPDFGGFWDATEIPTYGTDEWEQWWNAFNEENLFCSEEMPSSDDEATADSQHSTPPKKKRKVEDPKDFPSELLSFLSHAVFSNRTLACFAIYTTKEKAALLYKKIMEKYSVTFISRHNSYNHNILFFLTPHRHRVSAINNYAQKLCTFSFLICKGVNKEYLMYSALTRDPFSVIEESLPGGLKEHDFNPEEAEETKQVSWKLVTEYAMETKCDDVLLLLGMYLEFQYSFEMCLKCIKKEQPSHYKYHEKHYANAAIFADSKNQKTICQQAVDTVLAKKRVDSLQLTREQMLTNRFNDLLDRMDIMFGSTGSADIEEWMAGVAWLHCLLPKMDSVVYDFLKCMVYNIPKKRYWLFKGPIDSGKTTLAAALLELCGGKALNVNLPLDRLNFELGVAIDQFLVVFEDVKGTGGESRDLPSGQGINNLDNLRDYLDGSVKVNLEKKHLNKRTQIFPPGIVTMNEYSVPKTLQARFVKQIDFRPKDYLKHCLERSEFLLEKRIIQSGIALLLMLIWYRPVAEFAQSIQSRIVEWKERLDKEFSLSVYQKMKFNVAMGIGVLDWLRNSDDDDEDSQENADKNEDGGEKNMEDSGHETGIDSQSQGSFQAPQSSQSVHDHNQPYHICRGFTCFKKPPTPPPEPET
# Cytochrome P450 2C19, sequence (P33261 whole entry): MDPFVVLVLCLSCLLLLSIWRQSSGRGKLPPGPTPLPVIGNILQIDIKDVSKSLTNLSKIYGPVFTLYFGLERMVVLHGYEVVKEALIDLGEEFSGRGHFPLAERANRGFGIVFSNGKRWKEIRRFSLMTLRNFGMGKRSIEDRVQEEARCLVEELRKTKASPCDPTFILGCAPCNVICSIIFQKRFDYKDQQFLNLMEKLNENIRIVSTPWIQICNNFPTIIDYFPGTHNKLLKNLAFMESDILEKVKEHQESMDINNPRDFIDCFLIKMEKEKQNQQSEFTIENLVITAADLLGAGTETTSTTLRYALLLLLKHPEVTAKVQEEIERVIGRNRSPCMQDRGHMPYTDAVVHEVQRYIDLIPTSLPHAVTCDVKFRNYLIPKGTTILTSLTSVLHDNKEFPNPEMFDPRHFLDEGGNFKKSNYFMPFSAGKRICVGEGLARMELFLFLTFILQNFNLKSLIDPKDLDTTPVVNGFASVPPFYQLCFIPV
structure (smiles),measurement,setting,value
COc1cc(SC)ccc1C(=O)Nc1ccc(Br)cn1,AC50,[1],7.36 µM (active)
O=C(NCc1ccccc1)C(=O)Nc1cccc(C(=O)O)c1,AC50,[1],4.85 µM (active)
COc1ccc(Nc2nc(-c3cccs3)nc3ccccc23)c(OC)c1,CC50,[2],32.9 µM (active)
CSc1nc(C(=O)N2CCc3c([nH]c4ccccc34)C2c2ccccn2)cs1 (centres undefined),CC50,[2],30.1 µM (active)
CCCOC(=O)c1cc(-c2ccc(C=O)o2)ccc1Cl,CC50,[2],36.9 µM (active)
CCOC(=O)C1=C(C)N(c2ccccc2)C(=O)/C1=C\c1ccc(O)c(OC)c1,IC50,Large T antigen,47.1 µM (active)
COc1ccc(-c2nc(O)c3cnccn23)cc1,IC50,Large T antigen,24.2 µM (active)
CCn1c(C)c(C)c2cc(C(=O)NCCN3CCOCC3)ccc21,AC50,[3],25.5 µM (active)
Cc1ccc(-n2nc3c(=O)n(CCCC(=O)NCc4cccc(F)c4)nc(C)c3c2C)cc1,CC50,[2],> 50 µM (active)
CC(CC(=O)OCC(=O)Nc1ccc2[nH]c(O)nc2c1)c1ccccc1 (centres undefined),IC50,[4],21 µM (inactive)
same,IC50,[5],> 66.6 µM (inactive)
COc1cc(C2C(C#N)=C(N)Oc3[nH]nc(-c4cccnc4)c32)cc(Br)c1O (centres undefined),EC50,[6],> 300 µM (not active)
same,EC50,Protein RecA,2.06 µM (active)
same,IC50,Large T antigen,57 µM (active)
same,AC50,[7],5.65 µM (active)
same,EC50,[8],> 300 µM (not active)
CCC(CO)Oc1cc(NC(=O)c2ccccc2F)c2ncn(C(C)C)c2c1 (centres undefined),IC50,[4],12.2 µM (active)
same,IC50,[5],> 66.6 µM (inactive)
CC(=O)Nc1ccc(S(=O)(=O)N2CCn3cccc3C2C)cc1 (centres undefined),AC50,[1],28.6 µM (active)
CCC(=O)Nc1cc2nn(-c3ccc(C)cc3)nc2cc1C,AC50,[1],4.15 µM (active)
Cc1cc(C(=O)Nc2ccc(N3CCCCC3)cc2)no1,AC50,[9],13.3 µM (active)
same,AC50,[10],13.1 µM (active)
CCOC(=O)C1C(=O)C=C(c2ccc(C)cc2)CC1c1ccccc1 (centres undefined),CC50,[2],35.4 µM (active)
CC(C)(c1cc(Br)c(O)c(Br)c1)c1cc(Br)c(O)c(Br)c1,CC50,[2],24.9 µM (active)
COc1cc(CN2C[C@@H]3N[C@H](C2)[C@H]3c2ccc(-c3cccc(OC)c3)cc2)cc(OC)c1,AC50,[3],24.5 µM (active)
C[C@@H]1CN([C@@H](C)CO)S(=O)(=O)c2ccc(C#CC3CCCCC3)cc2O[C@H]1CN(C)Cc1cccnc1,AC50,[3],15.1 µM (active)
CCc1nnc(S)n1/N=C/c1ccc(N(C)c2ccccc2)cc1,CC50,[2],28.1 µM (active)
CCNc1nc(NCC)nc(N/N=C/c2ccc(O)c(OC)c2)n1,IC50,Large T antigen,11 µM (active)
COc1ccc(/C=N\NC(=O)c2ccc(O)nn2)cc1O,IC50,Large T antigen,14.3 µM (active)
same,IC50,[11],26.5 µM (active)
O=C(N/N=C/c1ccncc1)c1cc2c(ccc3ccccc32)o1,AC50,Cytochrome P450 2C19,8.91 µM (inconclusive)
same,AC50,Cytochrome P450 2C9,0.794 µM (inconclusive)
same,IC50,[4],100 µM (inactive)
same,IC50,[5],> 66.6 µM (inactive)
